Source: patent US10351576B2, “Fused tricyclic pyrazole derivatives useful for farnesoid X receptors” (NOVARTIS AG, priority 2015, dated 2019)

Target: T1, human Farnesoid X Receptor (FXR) ligand binding domain (GST-FXR LBD) (Homo sapiens, UniProt Q96RI1)
T1 construct: purchased Invitrogen
T1 sequence (Q96RI1 193-472 isoform Q96RI1-2): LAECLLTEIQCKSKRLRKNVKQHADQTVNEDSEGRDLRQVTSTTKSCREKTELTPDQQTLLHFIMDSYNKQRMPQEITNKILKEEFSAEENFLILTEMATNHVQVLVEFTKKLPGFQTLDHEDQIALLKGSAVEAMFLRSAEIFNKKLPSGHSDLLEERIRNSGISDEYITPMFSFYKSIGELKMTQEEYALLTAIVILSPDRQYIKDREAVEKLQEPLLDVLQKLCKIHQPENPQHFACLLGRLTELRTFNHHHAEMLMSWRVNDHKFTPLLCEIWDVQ
Test: Human GST-FXR LBD co-activator interaction assay (FXR HTRF assay)
Format: biochemical
Settings: ligand-dependent interaction of GST-FXR LBD with biotin-labeled SRC-1 peptide, response relative to GW4064, read-out: FXR coactivator interaction assay (HTRF)
Excerpt: Human GST-FXR LBD Co-Activator Interaction Assay
The FXR HTRF assay is a biochemical assay measuring the interaction between FXR and a coactivator protein (SRC1). The ligand-induced interaction with a coactivator protein is a critical step in transcriptional activation by FXR. Thus, this is an assay designed to measure FXR agonist activity of the test compounds.
Recombinant human Farnesoid X Receptor (FXR) ligand binding domain (amino acids 193-472) fused to glutathione S-transferase (GST) purified protein (GST-FXR LBD) was purchased (Invitrogen). The ligand-dependent interaction between GST-FXR LBD and a peptide derived from Steroid Receptor Coactivator-1 (SRC-1) was monitored by Fluorescence Resonance Energy Transfer (FRET). […] Test compounds (in DMSO solution) and detection reagents (anti-GST-Cryptate labeled antibody and Streptavidin-XL665 conjugate; CisBio) were added in assay buffer containing 50 mM KF. Plates are incubated at room temperature in the dark for 2.5 hrs before reading on an Envision (PerkinElmer) at 665 nm and 590 nm. The HTRF assay results were calculated from the 665 nm/590 nm ratio (ratio=(A665 nm/A590 nm)×10^4) and expressed in Delta F %=(Ratiosample−Rationegative)/Rationegative×100.
A negative control (without Streptavidin-XL665) was run with each assay and represented the background fluorescence. A reference FXR agonist, (E)-3-(2-chloro-4-((3-(2,6-dichlorophenyl)-5-isopropylisoxazol-4-yl)methoxy)styryl)benzoic acid (Compound GW4064), was included in each experiment as positive control. The efficacy of each test compound was compared to that of GW4064. At each concentration, the relative activity of the test compound was expressed as Response %=(Rsample−RDMSO)/(Rpositive−RDMSO), where Rsample is the HTRF response (expressed in Delta F %) for the test compound, Rpositive is the maximal response for GW4064 at saturating concentrations, and RDMSO is the response for DMSO control. The EC50 values were calculated using GraphPad Prism (GraphPad Software) using non-linear regression curve fit (log(agonist) vs. response—variable slope (four parameters)).

EC50 [nM]	SMILES
84	CC(C)NC(=O)CN(Cc1cc(F)ccc1F)C(=O)c1nn(C)c2c1COc1ccc(Cl)cc1-2 [Compound 26, 2-(1-{8-chloro-1-methyl-1H,4H-chromeno[4,3-c]pyrazol-3-yl}-N-[(2,5-difluorophenyl)methyl]formamido)-N-(propan-2-yl)acetamide]
61	Cn1nc(C(=O)N(CC(=O)NC2CC2)Cc2cccc(F)c2)c2c1-c1cc(Cl)ccc1OC2 [Compound 27, 2-(1-{8-chloro-1-methyl-1H,4H-chromeno[4,3-c]pyrazol-3-yl}-N-[(3-fluorophenyl)methyl]formamido)-N-cyclopropylacetamide]
36	CC(C)NC(=O)CN(Cc1cccc(F)c1)C(=O)c1nn(C)c2c1COc1ccc(Br)cc1-2 [Compound 28, 2-(1-{8-bromo-1-methyl-1H,4H-chromeno[4,3-c]pyrazol-3-yl}-N-[(3-fluorophenyl)methyl]formamido)-N-(propan-2-yl)acetamide]
197	CC(C)NC(=O)CN(Cc1ccccc1F)C(=O)c1nn(C)c2c1COc1ccc(Cl)cc1-2 [Compound 29, 2-(1-{8-chloro-1-methyl-1H,4H-chromeno[4,3-c]pyrazol-3-yl}-N-[(2-fluorophenyl)methyl]formamido)-N-(propan-2-yl)acetamide]
190	Cn1nc(C(=O)N(CC(=O)NC(C)(C)C)Cc2ccccc2F)c2c1-c1cc(Cl)ccc1OC2 [Compound 30, N-tert-butyl-2-(1-{8-chloro-1-methyl-1H,4H-chromeno[4,3-c]pyrazol-3-yl}-N-[(2-fluorophenyl)methyl]formamido)acetamide]
124	Cn1nc(C(=O)N(CC(=O)NCC2CCCO2)Cc2ccccc2F)c2c1-c1cc(Cl)ccc1OC2 (stereo not shown) [Compound 31, 2-(1-{8-chloro-1-methyl-1H,4H-chromeno[4,3-c]pyrazol-3-yl}-N-[(2-fluorophenyl)methyl]formamido)-N-(oxolan-2-ylmethyl)acetamide]
376	Cn1nc(C(=O)N(CC(=O)NCC2CCCOC2)Cc2ccccc2F)c2c1-c1cc(Cl)ccc1OC2 (stereo not shown) [Compound 32, 2-(1-{8-chloro-1-methyl-1H,4H-chromeno[4,3-c]pyrazol-3-yl}-N-[(2-fluorophenyl)methyl]formamido)-N-(oxan-3-ylmethyl)acetamide]
62	Cn1nc(C(=O)N(CC(=O)NCCF)Cc2cccc(F)c2F)c2c1-c1cc(Cl)ccc1OC2 [Compound 33, 2-(1-{8-chloro-1-methyl-1H,4H-chromeno[4,3-c]pyrazol-3-yl}-N-[(2,3-difluorophenyl)methyl]formamido)-N-(2-fluoroethyl)acetamide]
193	CNC(=O)CN(Cc1ccccc1)C(=O)c1nn(C)c2c1COc1ccc(Br)cc1-2 [Compound 34, 2-(N-benzyl-1-{8-bromo-1-methyl-1H,4H-chromeno[4,3-c]pyrazol-3-yl}formamido)-N methylacetamide]
366	CC(C)NC(=O)CN(Cc1c(F)cccc1F)C(=O)c1nn(C)c2c1COc1ccc(Cl)cc1-2 [Compound 35, 2-(1-{8-chloro-1-methyl-1H,4H-chromeno[4,3-c]pyrazol-3-yl}-N-[(2,6-difluorophenyl)methyl]formamido)-N-(propan-2-yl)acetamide]
99	Cn1nc(C(=O)N(CC(=O)NC2CCS(=O)(=O)C2)Cc2cccc(F)c2)c2c1-c1cc(Cl)ccc1OC2 (stereo not shown) [Compound 36, 8-chloro-N-(2-((1,1-dioxidotetrahydrothiophen-3-yl)amino)-2-oxoethyl)-N-(3-fluorobenzyl)-1-methyl-1,4-dihydrochromeno[4,3-c]pyrazole-3-carboxamide]
192	CNC(=O)c1ccc(NC(=O)CN(Cc2ccccc2F)C(=O)c2nn(C)c3c2COc2ccc(Cl)cc2-3)cc1 [Compound 37, 4-[2-(1-{8-chloro-1-methyl-1H,4H-chromeno[4,3-c]pyrazol-3-yl}-N-[(2-fluorophenyl)methyl]formamido)acetamido]-N-methylbenzamide]
717	Cn1nc(C(=O)N(CC(=O)NC2CCC(O)CC2)Cc2ccccc2F)c2c1-c1cc(Cl)ccc1OC2 (stereo not shown) [Compound 38, 2-(1-{8-chloro-1-methyl-1H,4H-chromeno[4,3-c]pyrazol-3-yl}-N-[(2-fluorophenyl)methyl]formamido)-N-(4-hydroxycyclohexyl)acetamide]
482	Cn1nc(C(=O)N(CC(=O)NC2CCS(=O)(=O)C2)Cc2ccccc2F)c2c1-c1cc(Cl)ccc1OC2 (stereo not shown) [Compound 39, 8-chloro-N-(2-((1,1-dioxidotetrahydrothiophen-3-yl)amino)-2-oxoethyl)-N-(2-fluorobenzyl)-1-methyl-1,4-dihydrochromeno[4,3-c]pyrazole-3-carboxamide]
608	Cn1nc(C(=O)N(CC(=O)NCC2CC2)CC2CCOCC2)c2c1-c1cc(Cl)ccc1OC2 [Compound 40, 2-(1-{8-chloro-1-methyl-1H,4H-chromeno[4,3-c]pyrazol-3-yl}-N-(oxan-4-ylmethyl)formamido)-N-(cyclopropylmethyl)acetamide]
1610	Cn1nccc1NC(=O)CN(Cc1ccccc1F)C(=O)c1nn(C)c2c1COc1ccc(Cl)cc1-2 [Compound 41, 2-(1-{8-chloro-1-methyl-1H,4H-chromeno[4,3-c]pyrazol-3-yl}-N-[(2-fluorophenyl)methyl]formamido)-N-(1-methyl-1H-pyrazol-5-yl)acetamide]
631	CC(C)NC(=O)CN(Cc1cccc(F)c1F)C(=O)c1nn(C)c2c1COc1ccc(Cl)cc1-2 [Compound 42, 2-(1-{8-chloro-1-methyl-1H,4H-chromeno[4,3-c]pyrazol-3-yl}-N-[(2,3-difluorophenyl)methyl]formamido)-N-(propan-2-yl)acetamide]
1700	Cn1nc(C(=O)N(CC(=O)NC(C)(C)c2ccccc2)Cc2ccccc2F)c2c1-c1cc(Cl)ccc1OC2 [Compound 43, 2-(1-{8-chloro-1-methyl-1H,4H-chromeno[4,3-c]pyrazol-3-yl}-N-[(2-fluorophenyl)methyl]formamido)-N-(2-phenylpropan-2-yl)acetamide]
8	Cn1nc(C(=O)N(CC(=O)NCC(O)C(F)(F)F)Cc2ccccc2F)c2c1-c1cc(Cl)ccc1OC2 (stereo not shown) [Compound 44, 8-chloro-N-(2-fluorobenzyl)-1-methyl-N-(2-oxo-2-((3,3,3-trifluoro-2-hydroxypropyl)amino)ethyl)-1,4-dihydrochromeno[4,3-c]pyrazole-3-carboxamide]
33	Cn1nc(C(=O)N(CC(=O)NCC(C)(O)C(F)(F)F)Cc2ccccc2F)c2c1-c1cc(Cl)ccc1OC2 (stereo not shown) [Compound 45, 2-(1-{8-chloro-1-methyl-1H,4H-chromeno[4,3-c]pyrazol-3-yl}-N-[(2-fluorophenyl)methyl]formamido)-N-(3,3,3-trifluoro-2-hydroxy-2-methylpropyl)acetamide]
19	Cn1nc(C(=O)N(CC(=O)NCC(C)(C)O)Cc2ccccc2F)c2c1-c1cc(Cl)ccc1OC2 [Compound 46, 2-(1-{8-chloro-1-methyl-1H,4H-chromeno[4,3-c]pyrazol-3-yl}-N-[(2-fluorophenyl)methyl]formamido)-N-(2-hydroxy-2-methylpropyl)acetamide]
75	Cn1nc(C(=O)N(CC(=O)NCC2(O)CC2)Cc2ccccc2F)c2c1-c1cc(Cl)ccc1OC2 [Compound 48, 2-(1-{8-chloro-1-methyl-1H,4H-chromeno[4,3-c]pyrazol-3-yl}-N-[(2-fluorophenyl)methyl]formamido)-N-[(1-hydroxycyclopropyl)methyl]acetamide]
442	Cn1nc(C(=O)N(Cc2ccccc2)Cc2ccc(C(N)=O)cc2)c2c1-c1cc(Cl)ccc1OC2 [Compound 53, N-benzyl-N-(4-carbamoylbenzyl)-8-chloro-1-methyl-1,4-dihydrochromeno[4,3-c]pyrazole-3-carboxamide]
266	CNS(=O)(=O)c1ccc(CN(Cc2ccccc2)C(=O)c2nn(C)c3c2COc2ccc(Cl)cc2-3)cc1 [Compound 54, N-benzyl-8-chloro-1-methyl-N-{[4-(methylsulfamoyl)phenyl]methyl}-1H,4H-chromeno[4,3-c]pyrazole-3-carboxamide]
605	Cn1nc(C(=O)N(Cc2ccccc2)Cc2ccc(S(C)(=O)=O)cc2)c2c1-c1cc(Cl)ccc1OC2 [Compound 56, N-benzyl-8-chloro-N-[(4-methanesulfonylphenyl)methyl]-1-methyl-1H,4H-chromeno[4,3-c]pyrazole-3-carboxamide]
